# Measured values from article PMC12022909, “A Multicomponent Reaction-Based Platform Opens New Avenues in Aryl Hydrocarbon Receptor Modulation” (ACS Central Science, 2025).
# Like-named read-outs stand apart in the source and are kept apart here.
# Tests used:
# [1] = target: T1, aryl hydrocarbon receptor (AhR) (Homo sapiens, UniProt P35869); test: AhR/XRE-dependent luciferase reporter gene assay in XRE-HepG2 cells; assay type: cell-based; conditions: for EC50: 8 h; for AhR-dependent reporter gene activity on co-treatment with BaP: preliminary data
# T1 construct: AhR-dependent reporter gene activity was determined in human HepG2 cells stably transfected with an XRE; endogenous in cells; host or cells: XRE-HepG2 (human HepG2 hepatoma cells stably carrying an XRE-luciferase plasmid)
# T1 sequence (P35869 11-848): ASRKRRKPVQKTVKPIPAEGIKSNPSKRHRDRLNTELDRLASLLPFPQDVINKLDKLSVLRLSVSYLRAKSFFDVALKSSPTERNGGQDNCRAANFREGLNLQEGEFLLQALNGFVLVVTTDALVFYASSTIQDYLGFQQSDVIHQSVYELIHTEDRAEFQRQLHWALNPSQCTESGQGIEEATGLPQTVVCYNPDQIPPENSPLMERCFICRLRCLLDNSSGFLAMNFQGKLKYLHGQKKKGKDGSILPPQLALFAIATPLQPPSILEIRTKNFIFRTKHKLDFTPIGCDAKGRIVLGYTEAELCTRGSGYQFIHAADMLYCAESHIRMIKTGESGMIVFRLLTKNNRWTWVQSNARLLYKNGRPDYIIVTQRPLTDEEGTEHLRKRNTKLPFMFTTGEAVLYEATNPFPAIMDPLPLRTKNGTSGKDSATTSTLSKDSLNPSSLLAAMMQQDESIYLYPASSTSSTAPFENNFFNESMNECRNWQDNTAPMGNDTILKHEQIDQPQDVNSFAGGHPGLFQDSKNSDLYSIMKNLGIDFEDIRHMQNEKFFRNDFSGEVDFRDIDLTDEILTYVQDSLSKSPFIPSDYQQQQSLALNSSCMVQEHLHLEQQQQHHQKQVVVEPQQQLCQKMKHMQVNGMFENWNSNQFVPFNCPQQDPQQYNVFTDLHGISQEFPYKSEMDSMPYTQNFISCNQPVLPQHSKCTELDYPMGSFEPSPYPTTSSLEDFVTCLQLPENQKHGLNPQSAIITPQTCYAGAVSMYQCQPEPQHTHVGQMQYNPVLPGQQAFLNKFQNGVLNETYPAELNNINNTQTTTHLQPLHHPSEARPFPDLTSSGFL
# Description: (f) AhR/XRE-dependent reporter gene activity results (EC50/μM).
# Data are shown as mean ± SEM.
# The human XRE -HepG2 reporter cell -line was a kind gift of K. Gradin and L. Poellinger (Karolinska Institute, Stockholm,
# antibiotic/antimycotic solution, and 0.8 mg/ml G418. All cells were cultivated at 37 °C in a humidified atmosphere containing 5% CO 2.
# AhR-dependent reporter gene activity was determined in human HepG2 cells stably transfected with an XRE -harboring luciferase plasmid (XRE-HepG2 cells). […] Luciferase activity was normalized to protein content.
# [2] = Solubility in the growing media during cytotoxicity testing; assay type: physicochemical; conditions: concentration of 100 µM
# Description: A phosphatidylserine exposure was used to determine cell viability. Cells were washed with PBS, pelleted, and then incubated with annexin binding buffer containing Annexin V-APC (Life Technologies) for 15 min in the dark. Then, samples were analyzed by flow cytometry using FACSCanto II and FACSDiva (BD Biosciences, Franklin Lakes, NJ, USA). Data represents the percentage of non - apoptotic cells (Ann -APC-).
# The cytotoxicity of a selection of the synthesized compounds was assessed after 24 hours of treatment in two human cell lines, Jurkat and HEK293T, coming from either tumoral T-cell lymphocytes or non-tumoral embryonic kidney fibroblasts, respectively. […]
# the pro-apoptotic activity was not significant below 10 µM for most compounds in both cell lines, except for 5i, 5k and 5l in both cell lines, as well as 9a in Jurkat and 5e HEK293T cells (Figure S35A-B).
# Moreover, the cytotoxicity of compounds 4d, 5b, 5h, 8, 10, and 12d at a higher concentration (100 µM) was assessed in both cell lines, Jurkat and HEK293T. The cytotoxicity of compounds 5b, 5h, and 12d could not be properly tested as the compounds were not soluble […]
# effects observed for compound 4d in Jurkat cells and compound 8 in HEK293T cells (Figure S35C).
# Figure S35. A) Jurkat and B) HEK293T cells were treated with 1 and 10 µM doses of the corresponding compound for 24 hours. Indicated doses of fluorizoline were used as a positive control of cell death. C) Jurkat and HEK293T cells were treated with 100 µM of the corresponding compound for 24 hours. Viability was measured by flow cytometry, and it is expressed as the mean ± SEM (n = 3) of the percentage of non -apoptotic cells (Ann-APC-). * p < 0.05, ** p < 0.01 *** p < […]
# (1 picture or pasted object on this page, not shown here)
# HaCaT cells = test: UVA phototoxicity, caspase 3 activity in HaCaT cells; assay type: cell-based, human; conditions: HaCaT, 1 h, UVA 5 J/cm2
# Description: Irradiation with UVA and caspase 3 activity measurement […]
# culture media was exchanged with PBS and the cells were sham or UVA (5 J/cm2) irradiated using the BS-02 irradiation chamber (Opsytec Dr. Gröbel, Ettlingen Germany). Media was added to the cells and after 4 h incubation, caspase 3 activity was measured as described previously.[33] Protein quantification was done with the Bio-Rad DC protein assay kit (Bio-Rad Laboratories, Hercules, CA) according to the manufacturer protocol.
# We compared the phototoxic potential of five of our test compounds (8, 10, 5b, 5h, 4b) as well as the FDA-approved AhR activator […]
# induced caspase activity at a concentration of 100 nM (Figure S36A). At a 10-fold higher concentration (1 µM) two of the test compounds […]
# Figure S36. […] For statistical analysis a two-way ANOVA (Tukey post-hoc) was performed and data are shown as mean ± SEM. (*, p ≤ 0.05). […]
# [3] = XRE-HepG2 hepatoma cells, luciferase activity, read-out: AhR/XRE-dependent reporter gene activity (EC50)
# [4] = XRE-HepG2 cells, unit as in the supplements, read-out: AhR/XRE-dependent luciferase activity EC50
Compound,"EC50 [1, 4] [µM]",further results
CCCCCNC(=O)c1ccc2c(-c3c4[nH]c5ccccc5c4cc4[nH]c5ccccc5c34)c[nH]c2c1 [12a],–,"EC50 [1, 3]: 0.4 µM"
Cc1[nH]c2ccccc2c1-c1c2c3ccccc3n(C)c2cc2c3ccccc3n(C)c12 [5j],1.2,"reduction of activity compared to N,N′-H analog 5e ([1]; from reporter gene EC50 values): 2.3 fold"
COc1ccc2[nH]c3c(-c4c(C)[nH]c5ccccc45)c4c(cc3c2c1)[nH]c1ccc(OC)cc14 [5l],0.63,–
Brc1ccc2[nH]cc(-c3c4[nH]c5ccccc5c4cc4[nH]c5ccccc5c34)c2c1 [5b],0.94,solubility in the growing media [2]: not soluble; UVA radiation-induced caspase activity (phototoxicity) (HaCaT cells; 100 nM): neither tapinarof nor our 6-ICZ compounds enhanced; UVA radiation-induced caspase activity (phototoxicity) (HaCaT cells; 1 µM): exhibited similar effects to FICZ
Cc1ccc(C#Cc2ccc3[nH]cc(-c4c5[nH]c6ccccc6c5cc5[nH]c6ccccc6c45)c3c2)cc1 [9b],> 10,AhR-dependent reporter gene activity on co-treatment with BaP [1]: synergistic effects
O=C(O)c1ccc2c(-c3c4[nH]c5ccccc5c4cc4[nH]c5ccccc5c34)c[nH]c2c1 [5m],> 10,–
CC1(C)CC(=O)C(c2c3[nH]c4ccccc4c3cc3[nH]c4ccccc4c23)=C(O)C1 [4a],2.25,–
CS(=O)(=O)Nc1ccc(-c2ccc3[nH]cc(-c4c5[nH]c6ccccc6c5cc5[nH]c6ccccc6c45)c3c2)cc1 [9a],0.1,–
c1ccc(-c2[nH]c3ccccc3c2-c2c3[nH]c4ccccc4c3cc3[nH]c4ccccc4c23)cc1 [5f],1.17,–
Cc1cccc2[nH]cc(-c3c4[nH]c5ccccc5c4cc4[nH]c5ccccc5c34)c12 [5h],0.57,solubility in the growing media [2]: not soluble; UVA radiation-induced caspase activity (phototoxicity) (HaCaT cells; 100 nM): neither tapinarof nor our 6-ICZ compounds enhanced
O=c1oc2ccccc2c(O)c1-c1c2[nH]c3ccccc3c2cc2[nH]c3ccccc3c12 [4c],4.51,–
O=C(NCCCCCCCCCCNC(=O)c1ccc2c(-c3c4[nH]c5ccccc5c4cc4[nH]c5ccccc5c34)c[nH]c2c1)c1ccc2c(-c3c4[nH]c5ccccc5c4cc4[nH]c5ccccc5c34)c[nH]c2c1 [12c],6.06,–
c1ccc2c(-c3c4[nH]c5ccccc5c4cc4[nH]c5ccccc5c34)c[nH]c2c1 [5c],–,"EC50 [1, 3]: 0.36 µM"
O=C(NCCCOCCOCCOCCCNC(=O)c1ccc2c(-c3c4[nH]c5ccccc5c4cc4[nH]c5ccccc5c34)c[nH]c2c1)c1ccc2c(-c3c4[nH]c5ccccc5c4cc4[nH]c5ccccc5c34)c[nH]c2c1 [12d],> 10,solubility in the growing media [2]: not soluble
OCc1[nH]c2ccccc2c1-c1c2[nH]c3ccccc3c2cc2[nH]c3ccccc3c12 [5g],1.82,–
Cc1cccc2c(-c3c4[nH]c5ccccc5c4cc4[nH]c5ccccc5c34)c[nH]c12 [5i],0.45,–
O=C1OCC(O)=C1c1c2[nH]c3ccccc3c2cc2[nH]c3ccccc3c12 [4b],> 10,AhR-dependent reporter gene activity on co-treatment with BaP [1]: synergistic effects; UVA radiation-induced caspase activity (phototoxicity) (HaCaT cells; 100 nM): neither tapinarof nor our 6-ICZ compounds enhanced; UVA radiation-induced caspase activity (phototoxicity) (HaCaT cells; 1 µM): did not show any signs of phototoxicity
"CC(C)c1c(O)cc(/C=C/c2ccccc2)cc1O [Tapinarof, tapinarof, reference compound]",–,UVA radiation-induced caspase activity (phototoxicity) (HaCaT cells; 100 nM): neither tapinarof nor our 6-ICZ compounds enhanced; UVA radiation-induced caspase activity (phototoxicity) (HaCaT cells; 1 µM): did not show any signs of phototoxicity
"Clc1cc2c(cc1Cl)Oc1cc(Cl)c(Cl)cc1O2 [TCDD, 2,3,7,8-tetrachlorodibenzodioxin, reference compound]",0.003,–
